# US20090214578A1, “Immunostimulatory Single-Stranded Ribonucleic Acid with Phosphodiester Backbone” (priority 2005, published 2009)
# Strand notation (5' to 3'): a small letter for the sugar, then the base; units joined by * are phosphorothioate-linked, units joined directly phosphodiester-linked; [ ] holds rarer units or linkages, { } end groups; capitals alone tell only the bases. r = 2'-OH (RNA)
# What was measured:
# human PBMCs = assay: Stimulatory capacity of ORN with PTO or PD backbone in human PBMCs; format: cell-based
# Text: (§1) To further investigate the role of TLR9 in the recognition of PD ssRNA, various RNA sequences, such as RNA41 (5′-[…]-3′; SEQ ID NO:4) and RNA42 (5′-[…]-3′; SEQ ID NO:5) that have been previously described as not active in murine cells when synthesized with a PTO backbone (Heil, Hemmi et al. 2004), were synthesized.
# murine cells [1] = assay: Stimulatory capacity of ORN with PTO or PD backbone in murine cells; format: cell-based; conditions: TLR7-independent fashion
# Text: as §1
# TLR9-deficient mDC = assay: IL-12p40 production by TLR9-deficient mDC; format: cell-based, murine
# Text: as §1
# [2] = test system: TLR7/TLR9 double deficient sorted mDCs; assay: ssRNA stimulation of TLR7/TLR9 double deficient sorted mDCs; format: cell-based, mice
# Text: (§2) Since the ssRNA-driven TLR7-independent immune stimulation is dependent on MyD88 and endosomal maturation, it was hypothesized that other intracellular TLRs are involved. TLR3 seems a poor candidate for the recognition of ssRNA since it mainly relies on the adaptor molecule TRIF and not MyD88 (Hoebe, Du et al. 2003). Nevertheless, to rule out TLR3 as receptor for ssRNA, TLR3- and TLR7-deficient mice were crossed to obtain TLR3/TLR7 double deficient mice, and immune cells from these mice were tested for ssRNA stimulation. […] TLR7/TLR9 double deficient mice were also generated to investigate the involvement of TLR9 in RNA63 recognition.
# [3] = test system: TLR3/TLR7 double deficient FLT3-L-induced DCs; assay: ssRNA stimulation of TLR3/TLR7 double deficient FLT3-L-induced DCs; format: cell-based, mice
# Text: as §2
# [4] = test system: TLR7/TLR9 double deficient GM-CSF-derived DCs; assay: ssRNA stimulation of TLR7/TLR9 double deficient GM-CSF-derived DCs; format: cell-based, mice
# Text: as §2
# [5] = test system: TLR7-deficient FLT3-L-induced DCs; assay: RNA63-induced activation of siRNA-transfected TLR7-deficient FLT3-L-induced DCs; format: cell-based, murine
# Text: (§3) The reduction in RNA63-driven immune activation correlated with siRNA-driven downregulation of mTLR8 RNA.
# [6] = test system: Wild-type FLT3-L-induced DCs; assay: IL-12 secretion of siRNA-treated wild-type FLT3-L-induced DCs on ssRNA stimulation; format: cell-based, murine; conditions: wild-type FLT3-L-induced DCs treated with mTLR8-specific siRNA; for reduction in IL-12 secretion in mTLR8-specific siRNA-treated cells: then stimulated with the ORN
# Text: as §3
# TLR7-deficient mDC = assay: IL-12p40 production by TLR7-deficient mDC; format: cell-based, murine; conditions: TLR7-single deficient mDC
# Text: as §1
# pDC, wild-type cells = assay: Recognition of ssRNA by pDC, wild-type cells; format: cell-based, murine; conditions: for Recognition by pDC: wild-type cells
# Text: as §1
# [7] = test system: pDC, TLR7-single deficient cells; assay: Recognition of ssRNA by pDC, TLR7-single deficient cells; format: cell-based, murine
# Text: as §1
# murine cells [8] = conditions: synthesized with a PTO backbone; Heil, Hemmi et al. 2004; cited from earlier work
# [9] = test system: pDC, TLR9-single deficient cells; assay: Recognition of ssRNA by pDC, TLR9-single deficient cells; format: cell-based, murine
# Text: as §1
# [10] = test system: TLR7−/− FLT3-L-induced dendritic cells; assay: Cytokine ELISA (IL-12p40, IL-6, IFN-α), FLT3-L-induced dendritic cells, TLR7−/−; format: cell-based, mice; conditions: for IFN-α induction / IL-6 induction / IL-12p40 induction: with DOTAP, 24 hours
# Description: (§4) FLT3-L-induced dendritic cells were prepared from wild-type and TLR7−/− mice and cultured in the presence of varied amounts of RNA63 PD or RNA63 PTO, each with DOTAP. After 24 hours incubation, supernatants were collected and analyzed by ELISA for IL-12p40, IL-6, and IFN-α. LPS, R-848, CpG-ODN 1668, CpG-ODN 2216 (5′-GGGGGACGATCGTCGGGGG-3′, SEQ ID NO:3), DOTAP alone, and medium alone were run as controls. Data are presented as mean±SEM.
# [11] = test system: TLR7−/− M-CSF-derived macrophages; assay: IL-12p40 ELISA, M-CSF-derived macrophages, TLR7−/−; format: cell-based, mice; conditions: with DOTAP, 24 hours, FIG. 5
# Description: (§5) M-CSF-derived macrophages and GM-CSF-derived dendritic cells were prepared from wild-type and TLR7−/− mice and cultured for 24 hours in the presence of RNA63 PD plus DOTAP, RNA63 PTO plus DOTAP. LPS, R-848, CpG-ODN 1668, CpG-ODN 2216, DOTAP alone, or medium alone. Culture supernatants were then collected and analyzed using ELISA for IL-12p40. Data are presented as mean±SEM.
# [12] = test system: peripheral blood mononuclear cells from TLR7−/− mice; assay: IL-12p40 ELISA on supernatants of peripheral blood mononuclear cells, TLR7−/− mice; format: cell-based; conditions: TLR 7−/− cells, added with DOTAP, 24 hours, FIG. 2
# Description: (§6) Peripheral blood mononuclear cells were isolated from wild-type and TLR7−/− mice, transferred into suitable growth medium, and then aliquoted separately into individual wells of multiwell culture plates. The following agents were added to individual wells of cells: RNA63 PD, a single-stranded ORN having a nucleotide sequence provided as 5′-CAGGUCUGUGAU-3′ (SEQ ID NO:1), in which all internucleotide linkages are phosphodiester except for a phosphorothioate linkage between the A and U at the 3′ end of the ORN; RNA63 PTO, a single-stranded ORN having the same nucleotide sequence as SEQ ID NO: 1, in which every internucleotide linkage is phosphorothioate; CpG-ODN 1668, an oligodeoxynucleotide having a nucleotide sequence provided as 5′-[…]-3′ (SEQ ID NO:2); DOTAP alone; R-848; RNA63 PTO plus DOTAP; RNA63 PD plus DOTAP; and medium alone. Cells were maintained in culture for 24 hours, and then supernatants from individual wells collected and analyzed using enzyme-linked immunosorbent assay (ELISA) specific for IL-12p40. Data are presented as mean±SEM.
# [13] = test system: TLR7−/− GM-CSF-derived dendritic cells; assay: IL-12p40 ELISA, GM-CSF-derived dendritic cells, TLR7−/−; format: cell-based, mice; conditions: with DOTAP, 24 hours, FIG. 5
# Description: as §5
# [14] = test system: wild-type FLT3-L-induced dendritic cells; assay: Cytokine ELISA (IL-12p40, IL-6, IFN-α), FLT3-L-induced dendritic cells, wild-type; format: cell-based, mice; conditions: with DOTAP, 24 hours; for IL-12p40 induction: FIG. 3A; for IL-6 induction: FIG. 3B; for IFN-α induction: FIG. 3C
# Description: as §4
# [15] = test system: M-CSF-derived macrophages from wild-type mice; assay: IL-12p40 ELISA, M-CSF-derived macrophages, wild-type; format: cell-based; conditions: with DOTAP, 24 hours, FIG. 5
# Description: as §5
# [16] = test system: peripheral blood mononuclear cells from wild-type mice; assay: IL-12p40 ELISA on supernatants of peripheral blood mononuclear cells, wild-type mice; format: cell-based; conditions: added with DOTAP, 24 hours, FIG. 2
# Description: as §6
# [17] = test system: GM-CSF-derived dendritic cells from wild-type mice; assay: IL-12p40 ELISA, GM-CSF-derived dendritic cells, wild-type; format: cell-based; conditions: with DOTAP, 24 hours, FIG. 5
# Description: as §5
# [18] = test system: wild-type FLT3-L-induced dendritic cells; assay: FACS for CD69 on FLT3-L-induced dendritic cells, wild-type; format: cell-based, mice; conditions: with DOTAP, 24 hours, FIG. 4
# Description: (§7) FLT3-L-induced dendritic cells were prepared from wild-type and TLR7−/− mice and cultured for 24 hours in the presence of RNA63 PD or RNA63 PTO, each with DOTAP, as in Example 2. After 24 hours incubation, cells were collected and analyzed by FACS for CD69.
# [19] = test system: TLR7−/− FLT3-L-induced dendritic cells; assay: FACS for CD69 on FLT3-L-induced dendritic cells, TLR7−/−; format: cell-based, mice; conditions: with DOTAP, 24 hours, FIG. 4
# Description: as §7
# MyD88−/− dendritic cells [20] = assay: FACS for CD69, FLT3-L-induced dendritic cells, MyD88−/−; format: cell-based, mice; conditions: with DOTAP, 24 hours, FIG. 6
# Description: (§8) FLT3-L-induced dendritic cells were separately prepared from wild-type, TLR7−/−, and MyD88−/− mice and cultured for 24 hours in the presence of RNA63 PD or RNA63 PTO, each with DOTAP, as in Example 2. After 24 hours incubation, cells were collected and analyzed by ELISA for IL-12p40 and by FACS for CD69.
# MyD88−/− dendritic cells [21] = assay: IL-12p40 ELISA, FLT3-L-induced dendritic cells, MyD88−/−; format: cell-based, mice; conditions: with DOTAP, 24 hours, FIG. 6
# Description: as §8
substance,measurement,setting,value
"5′-GCCCGACAGAAGAGAGACAC-3′ (listed as RNA, chemistry not fully specified) [RNA41 PD]",IFN-α stimulation,human PBMCs,no IFN-α
same,TNF-α stimulation,human PBMCs,stimulate
same,IFN-α stimulation,murine cells [1],stimulate
same,IL-6 stimulation,murine cells [1],stimulate
same,IL-12p40 stimulation,murine cells [1],stimulate
same,IL-12p40 production,TLR9-deficient mDC,failed to produce IL-12p40
"5′-CAGGUCUGUGAU-3′ (listed as RNA, chemistry not fully specified) [RNA63]",CD69 upregulation,[2],failed
same,IL-12p40 production,[2],failed to produce IL-12p40
same,RNA63-driven CD69 upregulation,[3],still functional
same,RNA63-driven IL-12p40 production,[3],still functional
same,CD69 upregulation,[4],failed
same,IL-12p40 production,[4],failed to produce IL-12p40
same,RNA63-induced IL-12p40 production in DCs treated with mTLR8-specific siRNA,[5],strong reduction
same,activation markers such as CD40 in DCs treated with mTLR8-specific siRNA,[5]; RNA63 stimulation,downregulation
"5′-ACCCAUCUAUUAUAUAACUC-3′ (listed as RNA, chemistry not fully specified) [RNA42 PD]",IFN-α stimulation,human PBMCs,no IFN-α
same,TNF-α stimulation,human PBMCs,stimulate
same,IFN-α stimulation,murine cells [1],stimulate
same,IL-6 stimulation,murine cells [1],stimulate
same,IL-12p40 stimulation,murine cells [1],stimulate
same,IL-12p40 production,TLR9-deficient mDC,failed to produce IL-12p40
"5′-GCCCGUCUGUUGUGUGACUC-3′ [RNA40, reference compound]",Influence of mTLR8-specific siRNA on stimulation,[6],not influenced
same,IL-12p40 production,TLR7-deficient mDC,induced some IL-12p40
same,IL-12p40 production,TLR9-deficient mDC,induced some IL-12p40
same,TLR dependence of recognition by pDC,"pDC, wild-type cells; GU-rich RNA",TLR7-dependent fashion
"5′-GCCCGACAGAAGAGAGACAC-3′ (listed as RNA, chemistry not fully specified) [RNA41, PTO in the cited result, probably PD in pDC and siRNA tests]",Response of pDC,[7],failed to respond
same,reduction in IL-12 secretion in mTLR8-specific siRNA-treated cells,[6],75%
same,Activity in murine cells,murine cells [8],not active
same,Response of pDC,[9],failed to respond
same,Recognition by pDC,"pDC, wild-type cells",also recognized
5′-CAGGUCUGUGAU-3′ [RNA63 PTO] (rC*rA*rG*rG*rU*rC*rU*rG*rU*rG*rA*rU) [reference compound],IFN-α induction,[10],not
same,IL-6 induction,[10],not
same,IL-12p40 induction,[10],not
same,IL-12p40 induction,[11],not
same,IL-12p40 induction,[12],not
same,IL-12p40 induction,[13],not
same,IL-12p40 induction,[14],induced significant amounts
same,IL-6 induction,[14],induced significant amounts
same,IFN-α induction,[14],induced significant amounts
same,IL-12p40 induction,[15],induced significant amounts of IL-12p40
same,IL-12p40 induction,[16],induced IL-12p40
same,IL-12p40 induction,[17],induced significant amounts of IL-12p40
same,CD69 induction,[18],induced significant amounts of CD69
same,CD69 induction,[19],not
same,induction of CD69,MyD88−/− dendritic cells [20],absent
same,induction of IL-12p40,MyD88−/− dendritic cells [21],absent
"5′-CAGGUCUGUGAU-3′ [RNA63 PD] (one 3' phosphorothioate linkage, chemistry not fully specified)",Dependence of the amount of IL-12p40 induced on concentration,[10]; varied amounts of ORN with DOTAP,varied in proportion to the concentration
same,IFN-α induction,[10],albeit less strongly
same,IL-6 induction,[10],albeit less strongly
same,IL-12p40 induction,[10],induced IL-112p40
same,IL-12p40 induction,[11],induced significant amounts of IL-12p40
same,IL-12p40 induction,[12],induced IL-12p40
same,IL-12p40 induction,[13],induced significant amounts of IL-12p40
same,IL-12p40 induction,[14],induced significant amounts
same,IL-6 induction,[14],induced significant amounts
same,IFN-α induction,[14],induced significant amounts
same,IL-12p40 induction,[15],induced significant amounts of IL-12p40
same,IL-12p40 induction,[16],induced IL-12p40
same,IL-12p40 induction,[17],induced significant amounts of IL-12p40
same,CD69 induction,[18],induced significant amounts of CD69
same,CD69 induction,[19],induced CD69
same,induction of CD69,MyD88−/− dendritic cells [20],absent
same,induction of IL-12p40,MyD88−/− dendritic cells [21],absent
"5′-ACCCAUCUAUUAUAUAACUC-3′ (listed as RNA, chemistry not fully specified) [RNA42, PTO in the cited result, probably PD in pDC and siRNA tests]",Response of pDC,[7],failed to respond
same,reduction in IL-12 secretion in mTLR8-specific siRNA-treated cells,[6],50%
same,Activity in murine cells,murine cells [8],not active
same,Response of pDC,[9],failed to respond
same,Recognition by pDC,"pDC, wild-type cells",also recognized
